From patent US8258145B2, “Method of treating brain cancer” (Myrexis, Inc., priority 2005, dated 2012)
Structures can show the parent of a compound that is named as a salt.

Key:
T-47D = test: Caspase cascade activation (caspase activity ratio and potency), fluorogenic N-(Ac-DEVD)-N'-ethoxycarbonyl-R110 substrate; type: cell-based, Human
Description: Human breast cancer cell lines T-47D and DLD-1 were grown according to media component mixtures designated by American Type Culture Collection+10% FCS (Invitrogen Corporation), in a 5% CO2−95% humidity incubator at 37° C. T-47D and DLD-1 cells were maintained at a cell density between 50 and 80% confluency at a cell density of 0.1 to 0.6×10^6 cells/mL. Cells were harvested at 600×g and resuspended at 0.65×10^6 cells/mL into appropriate media+10% FCS. An aliquot of 22.5 μL of cells was added to a well of a 384-well microtiter plate containing 2.5 μL of a 10% DMSO in RPMI-1640 media solution containing 0.16 to 100 μM of (2-chloro-quinazolin-4-yl)-(4-methoxy-phenyl)-methyl-amine or other test compound (0.016 to 10 μM final). An aliquot of 22.5 μL of cells was added to a well of a 384-well microtiter plate containing 2.5 μL of a 10% DMSO in RPMI-1640 media solution without test compound as the control sample. […] […] The samples were mixed by agitation and incubated at room temperature. Using a fluorescent plate reader (Model SPECTRAfluor Plus, Tecan), an initial reading (T=0) was made approximately 1-2 min after addition of the substrate solution, employing excitation at 485 nm and emission at 530 nm, to determine the background fluorescence of the control sample. After the 3 h incubation, the samples were read for fluorescence as above (T=3 h).
The Relative Fluorescence Unit values (RFU) were used to calculate the sample readings as follows: RFU(T=3h)−Control RFU(T=0)=Net RFU(T=3h)
The activity of caspase cascade activation was determined by the ratio of the net RFU value for (2-chloro-quinazolin-4-yl)-(4-methoxy-phenyl)-methyl-amine or other test compounds to that of control samples. The EC50 (nM) was determined by a sigmoidal dose-response calculation (Prism 3.0, GraphPad Software Inc.).

[1] = Determination of brain/plasma AUC ratio after tail vein injection; type: in vivo; details: mouse, intravenous, 0.0875 mg/mouse, mice, 0.10 mL of 0.875 mg/mL, AUC0-∞ from median plasma and brain concentrations
Description: For each test compound, forty five mice were injected via the tail vein with 0.10 mL of a 0.875 mg/mL solution of test compound dissolved in a formulation of 5% Cremophor, 5% Ethanol, and 90% D5W, or a formulation variation thereof. Five mice at each collection time point of approximately 0.05, 0.25, 0.50, 1.00, 2.00, 4.00, 8.00, 12.0 and 24.0 hours post dose were euthanized by halothane inhalation. Approximately 0.30 to 1.00 mL of blood from each animal was collected via cardiac puncture into tubes containing EDTA. Immediately after exsanguination, the whole brain from each animal was removed. The plasma and whole brain samples were frozen (˜20° C.) separately until analysis. Plasma and brain samples were allowed to thaw at room temperature on the day of sample analysis. Prior to homogenization, the brains were weighed and three volumes of sterile water were added. Plasma and homogenized brain samples were extracted using a protein precipitation and filtration method. Briefly, 0.20 mL acetonitrile was added to 0.10 mL of sample in a Varian Captiva 20 μm filtration plate. A vacuum was applied to the plate and filtrates were collected. Filtrates were injected onto LC-MS/MS ABI2000 QTrap LC-MS/MS equipped with a reverse phase liquid chromatography inlet. Peak areas of the m/z product ions of the test compounds were measured against the peak are of the m/z internal standard production. The range of quantitation for the assay was between 1.00 and 1000 ng/mL for both analytes.
Pharmacokinetic parameters (PK) for the test compounds were estimated on median plasma and brain concentrations using non-compartmental analysis in WinNonlin (Pharsight Corp., Mountain View, Calif.). The validation of this software program is reported in MPI-REP-PA-03.00. All values below the quantitation limit (BQL) of 1.00 ng/mL were excluded from PK analysis. The areas under the concentration-time curve (AUC0-∞) were calculated using a linear/log trapezoidal method.

| Structure (SMILES) | Caspase activity Ratio (net RFU of test compound to control) (T-47D; T-47D (24 hr)) | Kp [1] | Caspase activity Ratio (net RFU of test compound to control) (T-47D; T-47D (48 hr)) |
| --- | --- | --- | --- |
| COc1ccc(N(C)c2nc(Cl)nc3ccccc23)cc1 [Example 1, (2-Chloro-quinazolin-4-yl)-(4-methoxy-phenyl)-methyl-amine] | 8.7 | 30 | – |
| COc1ccc(N(C)c2nc(OC)nc3ccccc23)cc1 [Example 11, (2-methoxy-quinazolin-4-yl)-(4-methoxyphenyl)-methylamine] | – | 6.14 | – |
| COc1ccc(N(C)c2ccnc3ccccc23)cc1 [Example 17, (4-Methoxy-phenyl)-methyl-(quinolin-4-yl)-amine] | 7.2 | 9.16 | 12.5 |
| COc1ccc(N(C)c2nc(C)nc3ccccc23)cc1 [Example 21, (4-Methoxy-phenyl)-methyl-(2-methyl-quinazolin-4-yl)-amine hydrochloride] | 9.0 | 19.7 | 7.4 |
| COc1ccc(N(C)c2nc(C)nc3ccccc23)cn1 [Example 33, (2-Methyl-quinazolin-4-yl)-(6-methoxy-pyridin-3-yl)-methyl-amine] | – | 5.82 | – |
| Cc1nc(N(C)c2ccc(N(C)C)cc2)c2ccccc2n1 [Example 35, (4-Dimethylamino-phenyl)-(2-methyl-quinazolin-4-yl)-methyl-amine] | 8.5 | 16.1 | – |
| CNc1nc(N(C)c2ccc(OC)cc2)c2ccccc2n1 [Example 39, (2-Methylamino-quinazolin-4-yl)-(4-methoxy-phenyl)-methyl-amine] | 8.2 | 6.44 | – |
| CNc1nc(N(C)c2ccc(OC)nc2)c2ccccc2n1 [Example 40, (2-Methylamino-quinazolin-4-yl)-(6-methoxy-pyridin-3-yl)-methyl-amine] | 10 | 10 | – |
| CNc1ccc(N(C)c2nc(C)nc3ccccc23)cc1 [Example 43, (2-Methyl-quinazolin-4-yl)-(4-methylamino-phenyl)-methylamine] | 3.4 | 14.1 | – |
| Cc1nc(N(C)c2ccc(N(C)C)nc2)c2ccccc2n1 [Example 50, (2-Dimethylamino-pyridine-5-yl)-(2-methyl-quinazolin-4-yl)-methylamine] | 9.0 | – | – |
| COc1ccc(N(C)c2nc(N(C)C(C)=O)nc3ccccc23)cc1 [Example 51, (4-Methoxy-phenyl)-(2-N-methylacetamido-quinazolin-4-yl)-methylamine] | 4.0 | 23.3 | – |
| COc1ccc(N(C)c2nc(C)nc3ccc(N(C)C)cc23)cc1 [Example 52, (6-Dimethylamino-2-methyl-quinazolin-4-yl)-(4-methoxy-phenyl)-methylamine] | 6.4 | – | – |
| CN(c1ccc([N+](=O)[O-])cc1)c1nc(Cl)nc2ccccc12 [Example 54, (2-Chloro-quinazolin-4-yl)-(4-nitro-phenyl)-methyl-amine] | 7.1 | – | – |
| CN(c1ccccc1)c1nc(Cl)nc2ccccc12 [Example 55, (2-Chloro-quinazolin-4-yl)-phenyl-methyl-amine] | 6.7 | – | – |
| COc1ccc(OC)c(N(C)c2nc(Cl)nc3ccccc23)c1 [Example 56, (2-Chloro-quinazolin-4-yl)-(2,5-dimethoxy-phenyl)-methyl-amine] | 8.6 | – | 14.6 |
| COc1ccccc1N(C)c1nc(Cl)nc2ccccc12 [Example 57, (2-Chloro-quinazolin-4-yl)-(2-methoxy-phenyl)-methyl-amine] | – | – | 14.3 |
| CN(c1ccc(O)cc1)c1nc(Cl)nc2ccccc12 [Example 58, (2-Chloro-quinazolin-4-yl)-(4-hydroxyphenyl)-methylamine] | – | – | 12.5 |
| COc1ccc(N(C)c2nc(Cl)nc3cc(Cl)ccc23)cc1 [Example 59, (2,7-Dichloro-quinazolin-4-yl)-(4-methoxy-phenyl)-methyl-amine] | – | – | 12.7 |
| COc1ccc(N(C)c2nc(Cl)nc3cc(C)ccc23)cc1 [Example 60, (2-Chloro-7-methyl-quinazolin-4-yl)-(4-methoxy-phenyl)-methyl-amine] | – | – | 6.2 |
